Test results taken from patent US20260144788A1, “COMPOUND FOR SHP2 PROTEIN DEGRADATION AND MEDICAL USES THEREOF” (UBIX THERAPEUTICS, INC., priority 2022, published 2026).

Biological target: T1, SHP2 protein (Homo sapiens, UniProt Q06124)
T1 sequence (Q06124 1-593): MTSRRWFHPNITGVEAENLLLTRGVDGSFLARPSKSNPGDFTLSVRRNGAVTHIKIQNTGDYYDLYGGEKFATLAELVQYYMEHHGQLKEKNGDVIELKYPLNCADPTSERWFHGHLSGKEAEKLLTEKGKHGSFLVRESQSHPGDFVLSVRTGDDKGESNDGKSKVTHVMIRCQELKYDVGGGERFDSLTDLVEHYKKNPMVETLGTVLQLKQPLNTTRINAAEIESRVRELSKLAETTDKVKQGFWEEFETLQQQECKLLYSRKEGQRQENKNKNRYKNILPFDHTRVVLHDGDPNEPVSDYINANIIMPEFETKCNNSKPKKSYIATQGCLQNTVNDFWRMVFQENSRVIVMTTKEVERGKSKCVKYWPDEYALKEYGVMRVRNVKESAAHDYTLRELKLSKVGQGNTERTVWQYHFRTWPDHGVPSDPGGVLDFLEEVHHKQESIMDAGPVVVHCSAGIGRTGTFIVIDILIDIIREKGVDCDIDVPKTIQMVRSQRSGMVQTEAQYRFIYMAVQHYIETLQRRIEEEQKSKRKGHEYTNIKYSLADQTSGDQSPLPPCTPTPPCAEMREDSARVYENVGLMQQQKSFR
Experiment: Measurement of SHP2 protein degradation in NCI-H358 cells (western blotting)
Format: cell-based
Design: endogenous in cells; host or cells: NCI-H358
Conditions: harvested after 24 hours
How it was run: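 H358 cells in RPMI1640/25 mM HEPES/10% FBS, cultured 24 h, then exposed to compound at final 0.001, 0.01 and 0.1 μM for 24 h against a DMSO control. Lysates were normalised for protein by BCA and probed by western blot for SHP2, with GAPDH as loading control.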

| SHP2% degradation (0.01 μM) [%] | SHP2% degradation (0.1 μM) [%] | SMILES |
| --- | --- | --- |
| 92.4 | 99.9 | CC(=O)N[C@H](C(=O)N1C[C@H](O)C[C@H]1C(=O)NCc1ccc(-c2scnc2C)cc1OC1CCN(C(=O)C2CCN(c3cccc(Sc4cnc(N5CCC(C)(N)CC5)c(CO)n4)c3Cl)CC2)CC1)C(C)(C)C [Example 84, (2S,4R)-1-((S)-2-acetamido-3,3-dimethylbutanoyl)-N-(2-((1-(1-(3-((5-(4-amino-4-methylpiperidin-1-yl)-6-(hydroxymethyl)pyrazin-2-yl)thio)-2-chlorophenyl)piperidine-4-carbonyl)piperidin-4-yl)oxy)-4-(4-methylthiazol-5-yl)benzyl)-4-hydroxypyrrolidine-2-carboxamide] |
| 30.1 | 80.2 | Cc1cc(C(C(=O)N2C[C@H](O)C[C@H]2C(=O)NCc2ccc(-c3scnc3C)cc2OC2CCN(C(=O)C3CCN(c4nccc(Sc5cnc(N6CCC(C)(CN)CC6)cn5)c4Cl)CC3)CC2)C(C)C)on1 (stereo partly drawn) [Example 92, (2S,4R)—N-(2-((1-(1-(4-((5-(4-(aminomethyl)-4-methylpiperidin-1-yl)pyrazin-2-yl)thio)-3-chloropyridin-2-yl)piperidine-4-carbonyl)piperidin-4-yl)oxy)-4-(4-methylthiazol-5-yl)benzyl)-4-hydroxy-1-(3-methyl-2-(3-methylisoxazol-5-yl)butanoyl)pyrrolidine-2-carboxamide] |
| 53.0 | 99.0 | Cc1ncsc1-c1ccc(CNC(=O)[C@@H]2C[C@@H](O)CN2C(=O)[C@@H](NC(=O)C2(F)CC2)C(C)(C)C)c(OC2CCN(C(=O)C3CN(c4nccc(Sc5cnc(N6CCC(C)(CN)CC6)cn5)c4Cl)C3)CC2)c1 [Example 63, (2S,4R)—N-(2-((1-(1-(4-((5-(4-(aminomethyl)-4-methylpiperidin-1-yl)pyrazin-2-yl)thio)-3-chloropyridin-2-yl)azetidine-3-carbonyl)piperidin-4-yl)oxy)-4-(4-methylthiazol-5-yl)benzyl)-1-((S)-2-(1-fluorocyclopropane-1-carboxamido)-3,3-dimethylbutanoyl)-4-hydroxypyrrolidine-2-carboxamide] |
| 96.3 | 97.4 | Cc1ncsc1-c1ccc(CNC(=O)[C@@H]2C[C@@H](O)CN2C(=O)[C@H](C(C)C)n2cc(C3CC3)nn2)c(OC2CCN(C(=O)C3CCN(c4nccc(Sc5cnc(N6CCC(C)(CN)CC6)cn5)c4Cl)CC3)CC2)c1 [Example 101, (2S,4R)—N-(2-((1-(1-(4-((5-(4-(aminomethyl)-4-methylpiperidin-1-yl)pyrazin-2-yl)thio)-3-chloropyridin-2-yl)piperidine-4-carbonyl)piperidin-4-yl)oxy)-4-(4-methylthiazol-5-yl)benzyl)-1-((S)-2-(4-cyclopropyl-1H-1,2,3-triazol-1-yl)-3-methylbutanoyl)-4-hydroxypyrrolidine-2-carboxamide] |
| 96.2 | 99.8 | Cc1cn([C@H](C(=O)N2C[C@H](O)C[C@H]2C(=O)NCc2ccc(C#N)cc2OC2CCN(C(=O)C3CCN(c4nccc(Sc5cnc(N6CCC7(CC6)CO[C@@H](C)[C@H]7N)c(CO)n5)c4Cl)CC3)CC2)C(C)C)nn1 [Example 113, (2S,4R)—N-(2-((1-(1-(4-((5-((3S,4S)-4-amino-3-methyl-2-oxa-8-azaspiro[4.5]decan-8-yl)-6-(hydroxymethyl)pyrazin-2-yl)thio)-3-chloropyridin-2-yl)piperidine-4-carbonyl)piperidin-4-yl)oxy)-4-cyanobenzyl)-4-hydroxy-1-((S)-3-methyl-2-(4-methyl-1H-1,2,3-triazol-1-yl)butanoyl)pyrrolidine-2-carboxamide] |
